Data set [1] has as its system MDA-MB-231. Nature of the data set: Antiproliferative activity against human MDA-MB-231 cells assessed as inhibition of cell proliferation measured after 48 hrs by CCK8 assay. It is filed as functional, cell-based. To be noted: MDA-MB-231, 48 h. In general terms: Formazan colour is commonly taken as a measure of viable cells.
The subject of data set [2] is MCF7. Nature of the data set: Antiproliferative activity against human MCF7 cells assessed as inhibition of cell proliferation measured after 48 hrs by CCK8 assay. It counts as functional, cell-based. As to conditions: MCF7, 48 h.
Data set [3] can be described thus: Cytotoxicity against human L02 cells assessed as inhibition of cell proliferation measured after 48 hrs by CCK8 assay. It counts as cell-based.
For data set [4], the system named is Jurkat. Briefly: Antiproliferative activity against human Jurkat cells assessed as inhibition of cell proliferation measured after 48 hrs by CCK8 assay. It is filed as functional, cell-based.
In data set [5] the target is CDK6/cyclin D3 (Homo sapiens, UniProt Q00534). Also on record: species or system Sf9.
CDK6/cyclin D3, sequence (P30281 whole entry): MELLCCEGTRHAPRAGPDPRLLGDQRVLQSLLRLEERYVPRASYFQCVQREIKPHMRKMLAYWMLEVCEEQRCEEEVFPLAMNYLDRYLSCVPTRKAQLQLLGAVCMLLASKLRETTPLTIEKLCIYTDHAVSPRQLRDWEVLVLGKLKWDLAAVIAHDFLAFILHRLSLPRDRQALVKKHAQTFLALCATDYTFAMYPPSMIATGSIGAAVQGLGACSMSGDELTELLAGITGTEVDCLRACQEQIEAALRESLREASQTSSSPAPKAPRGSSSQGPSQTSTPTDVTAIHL
CDK6/cyclin D3, sequence (Q00534 whole entry): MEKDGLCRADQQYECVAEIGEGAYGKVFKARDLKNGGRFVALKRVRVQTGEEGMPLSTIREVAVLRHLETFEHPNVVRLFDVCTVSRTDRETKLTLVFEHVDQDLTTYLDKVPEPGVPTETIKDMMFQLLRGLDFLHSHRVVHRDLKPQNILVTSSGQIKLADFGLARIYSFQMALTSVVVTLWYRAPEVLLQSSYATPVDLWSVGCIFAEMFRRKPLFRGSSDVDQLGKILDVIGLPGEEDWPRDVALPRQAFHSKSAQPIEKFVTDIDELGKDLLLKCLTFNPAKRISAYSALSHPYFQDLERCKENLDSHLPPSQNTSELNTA
The target in data set [6] is CDK2/Cyclin A2 (Homo sapiens, UniProt P24941). Set-up: species or system Sf9.
Data set [7] concerns the target CDK9/Cyclin K (Homo sapiens, UniProt P50750). Nature of the data set: biochemical.

The values that follow come from ChEMBL document CHEMBL4602695, “Discovery and SARs of 5-Chloro-N4-phenyl-N2-(pyridin-2-yl)pyrimidine-2,4-diamine Derivatives as Oral Available and Dual CDK 6 and 9 Inhibitors with Potent Antitumor Activity” (J Med Chem, 2020).

CDK9/Cyclin K, sequence (P50750 whole entry): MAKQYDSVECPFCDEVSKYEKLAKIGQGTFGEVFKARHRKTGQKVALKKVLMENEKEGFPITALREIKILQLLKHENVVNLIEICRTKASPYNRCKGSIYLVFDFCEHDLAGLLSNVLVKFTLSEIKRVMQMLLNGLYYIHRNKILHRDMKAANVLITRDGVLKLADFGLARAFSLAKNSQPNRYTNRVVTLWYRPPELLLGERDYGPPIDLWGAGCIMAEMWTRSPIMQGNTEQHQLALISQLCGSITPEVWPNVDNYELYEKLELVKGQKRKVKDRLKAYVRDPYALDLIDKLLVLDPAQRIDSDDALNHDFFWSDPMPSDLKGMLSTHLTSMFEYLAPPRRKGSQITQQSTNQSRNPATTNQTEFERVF
CDK9/Cyclin K, sequence (O75909 whole entry, further chain): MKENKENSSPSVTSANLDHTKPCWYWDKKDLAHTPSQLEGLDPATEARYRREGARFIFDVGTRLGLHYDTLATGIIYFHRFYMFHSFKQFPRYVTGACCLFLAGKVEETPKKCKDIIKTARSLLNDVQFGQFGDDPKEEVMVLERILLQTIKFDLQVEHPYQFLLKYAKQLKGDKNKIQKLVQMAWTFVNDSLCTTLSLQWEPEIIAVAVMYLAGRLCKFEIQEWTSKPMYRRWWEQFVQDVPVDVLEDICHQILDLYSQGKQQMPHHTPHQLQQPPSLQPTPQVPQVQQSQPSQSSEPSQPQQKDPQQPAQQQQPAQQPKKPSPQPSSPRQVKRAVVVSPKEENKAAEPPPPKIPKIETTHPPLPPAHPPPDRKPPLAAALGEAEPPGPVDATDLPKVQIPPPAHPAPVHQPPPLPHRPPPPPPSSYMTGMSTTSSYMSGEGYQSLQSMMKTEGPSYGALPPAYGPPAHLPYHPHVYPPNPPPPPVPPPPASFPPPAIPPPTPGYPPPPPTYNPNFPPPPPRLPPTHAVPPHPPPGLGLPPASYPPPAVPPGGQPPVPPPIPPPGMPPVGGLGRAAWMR

Turning to `Cc1ccccc1Nc1nc(NCCc2ccccc2)ncc1Cl`, the 50% growth inhibitory concentration (GI50) in data set [1], in data set [2] and in data set [4] was above 100 µM throughout. In addition, the GI50 – broadly, the concentration giving 50% growth inhibition – at 48 h in data set [3] is above 100 µM. For the same compound, the IC50 in data set [5], in data set [6] and in data set [7] was above 10 µM in each case.

Regarding `CCN1CCN(c2ccc(Nc3ncc(Cl)c(Nc4ccccc4C)n3)cc2)CC1`, the GI50 was found to be 3.04 µM in data set [1], 3.16 µM in data set [2] and 2.06 µM in data set [4]. Further, the 50% growth inhibitory concentration (GI50) at 48 h in data set [3] was 0.97 µM. Further, the IC50 (usually the concentration at which inhibition is half-maximal) in data set [5] turned out to be 0.114 µM; in data set [6] it was 0.718 µM; in data set [7], 0.751 µM.

With `CN1CCN(c2ccc(Nc3ncc(Cl)c(Nc4ccc(C(C)(C)C)cc4)n3)nc2)CC1`, the GI50 in data set [1] is 16.2 µM; in data set [2], 12.6 µM. In addition, the GI50 at 48 h in data set [3] was found to be 6.07 µM. Further, the IC50 is 0.735 µM in data set [5], above 10 µM in data set [6] and 6.82 µM in data set [7].

Take `Cc1ccccc1Nc1nc(NCCc2ccccn2)ncc1Cl`: the GI50 in data set [1], in data set [2] and in data set [4] was above 100 µM in each case. Moreover, the GI50 at 48 h in data set [3] is above 100 µM. The half-inhibitory concentration (IC50) in data set [5], in data set [6] and in data set [7] was above 10 µM throughout.

Regarding `COc1cccc(CNc2nc(Nc3ccc(N4CCN(C)CC4)cn3)ncc2Cl)c1`, the concentration for 50% growth inhibition (GI50) in data set [1] came out at 20.3 µM; in data set [2], 19.5 µM; in data set [4], 73.4 µM. Besides, the GI50 at 48 h in data set [3] came to 16.2 µM. In addition, the figures for the IC50 in data set [5], in data set [6] and in data set [7] were 1.6 µM, above 10 µM and 3.29 µM, respectively.

As to `Cc1ccccc1Nc1nc(Nc2cccnc2)ncc1Cl`, the GI50 turned out to be 41.2 µM in data set [1], 56.5 µM in data set [2] and 38.6 µM in data set [4]. The 50% growth inhibitory concentration (GI50) at 48 h in data set [3] is 22.9 µM. In addition, the IC50 in data set [5] amounted to 6.65 µM; in data set [6], 0.03 µM; in data set [7] it was 3.43 µM.

On to `CCc1ccc(Nc2nc(Nc3ccc(N4CCN(C)CC4)cn3)ncc2Cl)cc1`, for which the values for the 50% growth inhibitory concentration (GI50) in data set [1], in data set [2] and in data set [4] were 5.56 µM, 8.23 µM and 11.1 µM, respectively. In addition, the GI50 at 48 h in data set [3] was 12.1 µM. Moreover, the half-maximal inhibitory concentration (IC50) in data set [5] was 0.281 µM; in data set [6], above 10 µM; in data set [7], 6.87 µM.

With `COc1cccc(Nc2nc(Nc3ccc(N4CCN(C)CC4)cn3)ncc2Cl)c1`, the concentration for 50% growth inhibition (GI50) was 8.51 µM in data set [1], 7.54 µM in data set [2] and 15.8 µM in data set [4]. In addition, in data set [3], the GI50 at 48 h amounted to 3.47 µM. Moreover, the IC50 came out at 0.103 µM in data set [5], 0.701 µM in data set [6] and 6.2 µM in data set [7].

`COc1cc(Nc2ncc(Cl)c(Nc3ccccc3C)n2)ccn1`: the GI50 in data set [1] was 42.6 µM; in data set [2] it was above 100 µM; in data set [4] it was 9.38 µM. Moreover, the GI50 at 48 h in data set [3] came out at 18.4 µM. Also, the half-inhibitory concentration (IC50) in data set [5] was above 10 µM; in data set [6] it was 0.074 µM; in data set [7] it was 0.908 µM.

With `Cc1ccccc1Nc1nc(NC2CCCCC2)ncc1Cl`, the GI50 in data set [1], in data set [2] and in data set [4] was above 100 µM in each case. Further, the concentration for 50% growth inhibition (GI50) at 48 h in data set [3] was above 100 µM. Besides, the IC50 in data set [5], in data set [6] and in data set [7] was above 10 µM throughout.

On to `COc1ccc(Nc2nc(Nc3ccc(N4CCN(C)CC4)cn3)ncc2Cl)cc1`, for which the GI50 in data set [1] is 8.02 µM; in data set [2], 8.45 µM; in data set [4], 11.2 µM. In data set [3], the GI50 at 48 h came to 3.15 µM. For the same compound, the IC50 in data set [5] was determined as 0.606 µM; in data set [6], 6.11 µM; in data set [7], 1.38 µM.

For the compound `Cc1ccccc1Nc1nc(NC2CC2)ncc1Cl`, the GI50 in data set [1], in data set [2] and in data set [4] was above 100 µM each time. Besides, the GI50 at 48 h in data set [3] was above 100 µM. In addition, the IC50 in data set [5], in data set [6] and in data set [7] was above 10 µM each time.

Consider `Cc1ccccc1Nc1nc(Nc2ccc(N3CCCCC3)cc2)ncc1Cl`, for which the concentration for 50% growth inhibition (GI50) was 19.9 µM in data set [1], above 100 µM in data set [2] and above 100 µM in data set [4]. Further, the concentration for 50% growth inhibition (GI50) at 48 h in data set [3] was determined as 5.69 µM. For the same compound, the half-inhibitory concentration (IC50) in data set [5] was above 10 µM; in data set [6], 3.69 µM; in data set [7], above 10 µM.

Regarding `CN1CCN(c2ccc(Nc3ncc(Cl)c(NCc4ccc(C(F)(F)F)cc4)n3)nc2)CC1`, the GI50 in data set [1] amounted to 19.1 µM; in data set [2], 28.4 µM; in data set [4], 7.96 µM. In data set [3], the GI50 at 48 h is 26.2 µM. The half-maximal inhibitory concentration (IC50) in data set [5] was 8.93 µM; in data set [6] it was above 10 µM; in data set [7], above 10 µM.

For the compound `Cc1ccccc1Nc1nc(Nc2ccccn2)ncc1Cl`, the values for the GI50 in data set [1], in data set [2] and in data set [4] were 11.2 µM, 31.4 µM and 20.1 µM, respectively. In data set [3], the 50% growth inhibitory concentration (GI50) at 48 h stood at 6.15 µM. Also, the results for the IC50 in data set [5], in data set [6] and in data set [7] were 2.76 µM, 0.643 µM and 8.11 to 8.12 µM, respectively.

Consider `Cc1ccccc1Nc1nc(Nc2ccc(N3CCOCC3)cn2)ncc1Cl`, for which the GI50 stood at 5.98 µM in data set [1], 6.63 µM in data set [2] and 14.1 µM in data set [4]. Moreover, the GI50 at 48 h in data set [3] turned out to be 1.99 µM. Also, the half-maximal inhibitory concentration (IC50) in data set [5] was 0.046 µM; in data set [6], above 10 µM; in data set [7] it was 0.051 µM.

Turning to `Cc1ccc(Nc2nc(Nc3ccc(N4CCN(C)CC4)cn3)ncc2Cl)cc1`, the results for the GI50 in data set [1], in data set [2] and in data set [4] were 4.03 µM, 11.4 µM and 30.9 µM, respectively. The concentration for 50% growth inhibition (GI50) at 48 h in data set [3] was 13.9 µM. Also, the IC50 in data set [5] is 0.088 µM; in data set [6], above 10 µM; in data set [7] it was 1.45 µM.

With `COC[C@@H](C)N[C@H]1CC[C@H](Nc2cc(-c3cccc(NCC4(C#N)CCOCC4)n3)c(Cl)cn2)CC1`, the GI50 in data set [1] is below 0.16 µM; in data set [2], 43.4 µM; in data set [4], below 0.16 µM. The 50% growth inhibitory concentration (GI50) at 48 h in data set [3] was found to be 28.3 µM. The IC50 in data set [5] was above 10 µM; in data set [6] it was 3.46 µM; in data set [7], 0.002 µM.

As for `CN1CCN(c2ccc(Nc3ncc(Cl)c(Nc4ccccc4)n3)nc2)CC1`, the GI50 in data set [1] is 37.4 µM; in data set [2], 51.8 µM; in data set [4] it was above 100 µM. For the same compound, the concentration for 50% growth inhibition (GI50) at 48 h in data set [3] is 7.99 µM. Besides, the IC50 in data set [5] is 0.113 µM; in data set [6], above 10 µM; in data set [7], 9.85 µM.

As to `Cc1ccccc1Nc1nc(Nc2ccc(N3CCOCC3)cc2)ncc1Cl`, the GI50 was 11.3 µM in data set [1], above 100 µM in data set [2] and 8.36 µM in data set [4]. The GI50 at 48 h in data set [3] is 5.37 µM. In addition, the IC50 in data set [5] stood at 1.69 µM; in data set [6], 2.68 µM; in data set [7], 1.12 µM.

Turning to `CC(C)c1ccc(Nc2nc(Nc3ccc(N4CCN(C)CC4)cn3)ncc2Cl)cc1`, the results for the 50% growth inhibitory concentration (GI50) in data set [1], in data set [2] and in data set [4] were 7.02 µM, 1.88 µM and 7.53 µM, respectively. Moreover, the GI50 at 48 h in data set [3] stood at 13.7 µM. Besides, the concentration for half-maximal inhibition (IC50) in data set [5] was 0.126 µM; in data set [6] it was above 10 µM; in data set [7], 9.17 µM.

Turning to `CC(C)c1ccccc1Nc1nc(Nc2ccc(N3CCN(C)CC3)cn2)ncc1Cl`, the 50% growth inhibitory concentration (GI50) came to 4.09 µM in data set [1], 4.36 µM in data set [2] and 5.14 µM in data set [4]. The half-inhibitory concentration (IC50) in data set [5] was 0.033 µM; in data set [6], above 10 µM; in data set [7], 2.65 µM.
